Measured values from patent publication US12187709B2 (Genentech, Inc., priority 2021, dated 2025).

How the values were obtained:
[1] = target: c-Cbl (Homo sapiens (Human), UniProt P22681); assay: C-Cbl LCK Ub TR-FRET assay (C-cbl Lck HTRF); type: biochemical
Method: (§1) 6 μL of detection mixture was added to all wells and briefly centrifuged before incubating for 20 min at room temperature. […] IC50 was generated using no LCK as the low control and DMSO as the high control.

[2] = target: Cbl-b (Homo sapiens (Human), UniProt Q13191); assay: Cbl-b LCK Ub TR-FRET assay (Cbl-b Lck HTRF); type: biochemical; conditions: for IC50: Cbl-b LCK Ub TR-FRET; for fold-selectivity (Cbl-b over C-cbl) / (fold-selectivity) Cbl-b and C-Cbl Selectivity: ratio C-cbl Lck HTRF IC50 / Cbl-b Lck HTRF IC50
Sequence of Cbl-b (Q13191 40-426): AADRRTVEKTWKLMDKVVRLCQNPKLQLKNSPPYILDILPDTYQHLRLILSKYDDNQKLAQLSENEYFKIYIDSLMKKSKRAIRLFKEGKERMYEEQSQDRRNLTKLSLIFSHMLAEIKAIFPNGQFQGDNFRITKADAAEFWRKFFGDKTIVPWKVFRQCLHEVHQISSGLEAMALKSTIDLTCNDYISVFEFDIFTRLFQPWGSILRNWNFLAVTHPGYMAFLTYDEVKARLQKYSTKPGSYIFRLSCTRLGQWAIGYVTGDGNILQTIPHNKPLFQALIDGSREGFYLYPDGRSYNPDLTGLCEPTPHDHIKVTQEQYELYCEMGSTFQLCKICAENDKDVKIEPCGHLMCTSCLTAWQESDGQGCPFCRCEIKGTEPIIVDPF
Method: as §1

Sequence of c-Cbl (P22681 47-435): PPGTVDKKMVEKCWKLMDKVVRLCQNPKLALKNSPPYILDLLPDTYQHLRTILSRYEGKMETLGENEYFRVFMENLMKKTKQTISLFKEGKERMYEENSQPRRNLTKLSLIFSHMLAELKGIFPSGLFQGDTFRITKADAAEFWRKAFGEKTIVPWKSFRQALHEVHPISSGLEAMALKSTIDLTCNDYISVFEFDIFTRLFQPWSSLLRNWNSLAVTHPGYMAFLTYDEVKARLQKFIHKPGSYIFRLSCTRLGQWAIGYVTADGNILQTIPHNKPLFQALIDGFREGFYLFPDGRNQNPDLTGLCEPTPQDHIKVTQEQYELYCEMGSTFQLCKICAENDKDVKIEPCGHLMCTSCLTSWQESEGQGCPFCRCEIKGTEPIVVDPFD

Row | IC50 [1] [µM] | IC50 [2] [µM] | fold-selectivity (Cbl-b over C-cbl) [2] | IC50 ([2]; Example 121) [µM] | (fold-selectivity) Cbl-b and C-Cbl Selectivity [2] [x] | SMILES
1 | 20 | ≥ 20 | 1.0x | – | – | CC(=O)N(C)[C@@H](c1cccc(N2Cc3c(cc(CNC4(C)CCC4)cc3C(F)(F)F)C2=O)c1)c1nncn1C (single isomer, unassigned) [Compound 400]
2 | 13 | 8.5 | 1.6 x | – | – | CC(=O)N1CC([C@H](c2cccc(N3Cc4c(cc(CNC5(C)CCC5)cc4C(F)(F)F)C3=O)c2)c2nncn2C)C1 (single isomer, unassigned) [Compound 401]
3 | 20 | – | – | 9.9 | 2.0 | C[C@@H](NC1(C)CCC1)c1cc2c(c(C(F)F)c1)CN(c1cccc([C@@H](c3nncn3C)C3COC3)c1)C2=O (single isomer, unassigned) [Compound 406]
4 | 15 | – | – | 4.5 | 3.4 | Cn1cnnc1[C@@](O)(c1ccccc1)c1cccc(N2Cc3c(Cl)cc(CNC4(C)CCC4)cc3C2=O)c1 (single isomer, unassigned) [Compound 410]
5 | 20 | – | – | ≥ 20 | 1.0 | Cn1cnnc1[C@](O)(c1ccccc1)c1cccc(N2Cc3c(Cl)cc(CNC4(C)CCC4)cc3C2=O)c1 (single isomer, unassigned) [Compound 411]
6 | 20 | – | – | 5.3 | 3.8 | Cn1cnnc1[C@H](c1cccc(N2Cc3c(cc(CNC4(C)CCC4)cc3C(F)(F)F)C2=O)c1)C1(O)CCC1 (single isomer, unassigned) [Compound 428]
7 | 20 | – | – | 8.5 | 2.4 | Cn1cnnc1[C@H](c1cccc(N2Cc3c(cc([C@@H](NC4(C)CCC4)C4CCC4)cc3C(F)(F)F)C2=O)c1)C1COC1 (single isomer, unassigned) [Compound 435]
8 | 20 | – | – | ≥ 20 | 1.0 | CC1(NCc2cc3c(c(C(F)(F)F)c2)CN(c2cccc([C@H](C4COC4)n4ccnn4)c2)C3=O)CCC1 (single isomer, unassigned) [Compound 437]
9 | 20 | – | – | 3 | 6.8 | Cn1cnnc1[C@@H](c1cccc(N2Cc3c(cc(CNC4(C)CCC4)cc3C(F)(F)F)C2=O)c1)[C@@H]1CCS(=O)(=O)C1 (single isomer, unassigned) [Compound 438]
10 | 20 | – | – | 14 | 1.4 | Cn1cnnc1[C@H](c1cccc(N2Cc3c(cc(CNC4(C)CCC4)cc3C(F)(F)F)C2=O)c1)[C@@H]1CCS(=O)(=O)C1 (single isomer, unassigned) [Compound 439]
11 | 0.4 | – | – | 0.066 | 6.0 | CC1(NCc2cc3c(c(C(F)(F)F)c2)CN(c2cccc([C@H](c4nnc[nH]4)C4COC4)c2)C3=O)CCC1 (single isomer, unassigned) [Compound 440]
12 | 20 | – | – | 6.3 | 3.2 | CC1(NCc2cc3c(c(C(F)(F)F)c2)CN(c2cccc([C@@H](c4nnc[nH]4)C4COC4)c2)C3=O)CCC1 (single isomer, unassigned) [Compound 441]
13 | 11 | – | – | 7.1 | 1.6 | Cn1cnnc1[C@H](c1cccc(N2Cc3c(cc([C@@H](NC4(C)CCC4)C4CC4)cc3C(F)(F)F)C2=O)c1)C1COC1 (single isomer, unassigned) [Compound 457]
14 | 0.012 | – | – | 0.0066 | 1.8 | Cn1cnnc1[C@@H](c1cccc(N2Cc3c(cc(CNCC4(C)CC4)cc3C(F)(F)F)C2=O)c1)C1COC1 (single isomer, unassigned) [Compound 465]
15 | 0.0045 | – | – | 0.0053 | 0.85 | Cn1cnnc1[C@@H](c1cccc(N2Cc3c(cc(CN[C@@H]4C[C@@H]5C[C@@H]5C4)cc3C(F)(F)F)C2=O)c1)C1COC1 (single isomer, unassigned) [Compound 469]
16 | 0.042 | – | – | 0.013 | 3.2 | Cn1cnnc1[C@@H](c1cccc(N2Cc3c(cc(CN[C@H]4[C@@H]5COC[C@@H]54)cc3C(F)(F)F)C2=O)c1)C1COC1 (single isomer, unassigned) [Compound 472]
17 | 0.0025 | 0.0036 | (0.69x) | – | – | CCOc1cc([C@]2(c3nncn3C)C[C@@H](C)C2)cc(N2Cc3c(cc(CNC4(C)CCC4)cc3C(F)(F)F)C2=O)n1 [Compound 3, 2-(6-ethoxy-4-((1s,3s)-3-methyl-1-(4-methyl-4H-1,2,4-triazol-3-yl)cyclobutyl)pyridin-2-yl)-6-(((1-methylcyclobutyl)amino)methyl)-4-(trifluoromethyl)isoindolin-1-one]
18 | 0.006 | 0.0066 | (0.91x) | – | – | CCOc1cc([C@]2(c3nncn3C)C[C@H](C)C2)cc(N2Cc3c(cc(CNC4(C)CCC4)cc3C(F)(F)F)C2=O)n1 [Compound 4, 2-(6-ethoxy-4-((1r,3r)-3-methyl-1-(4-methyl-4H-1,2,4-triazol-3-yl)cyclobutyl)pyridin-2-yl)-6-(((1-methylcyclobutyl)amino)methyl)-4-(trifluoromethyl)isoindolin-1-one]
19 | 0.0045 | 0.0071 | (0.64x) | – | – | CCNc1cc([C@]2(c3nncn3C)C[C@@H](C)C2)cc(N2Cc3c(cc(CNC4(C)CCC4)cc3C(F)(F)F)C2=O)n1 [Compound 5, 2-(6-(ethylamino)-4-((1s,3s)-3-methyl-1-(4-methyl-4H-1,2,4-triazol-3-yl)cyclobutyl)-pyridin-2-yl)-6-(((1-methylcyclobutyl)amino)methyl)-4-(trifluoromethyl)isoindolin-1-one]
20 | 0.0062 | 0.011 | (0.56x) | – | – | CCNc1cc([C@]2(c3nncn3C)C[C@H](C)C2)cc(N2Cc3c(cc(CNC4(C)CCC4)cc3C(F)(F)F)C2=O)n1 [Compound 6, 2-(6-(ethylamino)-4-((1r,3r)-3-methyl-1-(4-methyl-4H-1,2,4-triazol-3-yl)cyclobutyl)-pyridin-2-yl)-6-(((1-methylcyclobutyl)amino)methyl)-4-(trifluoromethyl)isoindolin-1-one]
21 | 0.166 | 0.083 | (2.0x) | – | – | CO[C@]1(C)C[C@](c2cccc(N3Cc4c(cc(CNC5(C)CCC5)cc4C(F)(F)F)C3=O)c2)(c2nncn2C)C1 [Compound 29, 2-(3-((1s,3s)-3-methoxy-3-methyl-1-(4-methyl-4H-1,2,4-triazol-3-yl)cyclobutyl)phenyl)-6-(((1-methylcyclobutyl)amino)methyl)-4-(trifluoromethyl)isoindolin-1-one]
22 | 0.033 | 0.015 | (2.2x) | – | – | Cn1cnnc1[C@]1(c2cccc(N3Cc4c(cc(CNC5(C)CCC5)cc4C(F)(F)F)C3=O)c2)C[C@@](C)(F)C1 [Compound 31, 2-(3-((1r,3r)-3-fluoro-3-methyl-1-(4-methyl-4H-1,2,4-triazol-3-yl)cyclobutyl)phenyl)-6-(((1-methylcyclobutyl)amino)methyl)-4-(trifluoromethyl)isoindolin-1-one]
23 | 0.012 | 0.011 | (1.1x) | – | – | Cn1cnnc1[C@]1(c2cccc(N3Cc4c(cc(CNC5(C)CCC5)cc4C(F)(F)F)C3=O)c2)C[C@@H](F)C1 [Compound 36, 2-(3-((1r,3r)-3-fluoro-1-(4-methyl-4H-1,2,4-triazol-3-yl)cyclobutyl)phenyl)-6-(((1-methylcyclobutyl)amino)methyl)-4-(trifluoromethyl)isoindolin-1-one]
24 | 0.017 | 0.0072 | (2.4x) | – | – | Cn1cnnc1C1(c2cccc(N3Cc4c(cc(CNC5(C)CCC5)cc4C(F)(F)F)C3=O)c2)CC(C)(C)C1 [Compound 39, 2-(3-(3,3-dimethyl-1-(4-methyl-4H-1,2,4-triazol-3-yl)cyclobutyl)phenyl)-6-(((1-methylcyclobutyl)amino)methyl)-4-(trifluoromethyl)-isoindolin-1-one]
25 | 0.028 | 0.0089 | (3.2x) | – | – | Cn1cnnc1C1(c2cccc(N3Cc4c(cc(CNC5(C)CCC5)cc4C(F)(F)F)C3=O)c2)CC2(CCC2)C1 [Compound 40]
26 | 0.059 | 0.021 | (2.8x) | – | – | CC(C)[C@H]1CN(C)CCN1Cc1cc2c(c(C(F)(F)F)c1)CN(c1cccc(C3(c4nncn4C)CC4(COC4)C3)c1)C2=O [Compound 41, (S)-6-((2-isopropyl-4-methylpiperazin-1-yl)methyl)-2-(3-(6-(4-methyl-4H-1,2,4-triazol-3-yl)-2-oxaspiro[3.3]heptan-6-yl)phenyl)-4-(trifluoromethyl)isoindolin-1-one]
27 | 0.017 | 0.018 | (0.96x) | – | – | CCc1cc(C2(c3nncn3C)CC(F)(F)C2)cc(N2Cc3c(cc(CNC4(C)CCC4)cc3C(F)(F)F)C2=O)n1 [Compound 59, 2-(4-(3,3-difluoro-1-(4-methyl-4H-1,2,4-triazol-3-yl)cyclobutyl)-6-ethylpyridin-2-yl)-6-(((1-methylcyclobutyl)amino)methyl)-4-(trifluoromethyl)isoindolin-1-one]

Row | SMILES | IC50 [1] [µM] | IC50 [2] [µM] | fold-selectivity (Cbl-b over C-cbl) [2] | IC50 ([2]; Example 121) [µM] | (fold-selectivity) Cbl-b and C-Cbl Selectivity [2] [x]
28 | Cn1cnnc1[C@H](OC1CCC1)c1cccc(N2Cc3c(cc(CNC4(C)CCC4)cc3C(F)(F)F)C2=O)c1 [Compound 47, (R)-2-(3-(cyclobutoxy(4-methyl-4H-1,2,4-triazol-3-yl)methyl)phenyl)-6-(((1-methylcyclobutyl)amino)methyl)-4-(trifluoromethyl)isoindolin-1-one] | 2.3 | 1.2 | (1.9x) | – | –
